One assay deals with T1, motilin receptor (Oryctolagus cuniculus, UniProt G1T803).
T1 construct: homogenized in 50 mM Tris buffer to prepare a protein sample; from tissue; host or cells: rabbit duodenum homogenate (mucous membrane separated)
The assay is described as follows: Motilin receptor binding test (125I motilin, rabbit duodenum protein sample). As to conditions: 125I motilin 25 pM, concentration reducing specific binding by 50%. On the procedure: Motilin receptor binding test
A motilin receptor binding test was conducted in the following manner [Vantrappen et al., Regul. Peptides, 15, 143 (1986)]. The duodenum was extracted from a slaughtered rabbit, had the mucous membrane separated and homogenized in 50 mM Tris buffer to prepare a protein sample. The protein sample was incubated together with ^125I motilin 25 pM and thereafter the radioactivity bound to the protein was measured. Specific binding was defined as the difference between the radioactivity in the case of adding a great excess amount of motilin (10^−7 M) and that in the case of no adding. The activity of the compound was expressed by IC50 (in nM), as the concentration sufficient to reduce the specific binding by 50%.

The subject of assay [1] is specimen of longitudinal muscle in the duodenum extracted from a rabbit (motilin-induced contraction). The assay is described as follows: Action on the motilin-induced contraction of a specimen of longitudinal muscle in the duodenum extracted from a rabbit. The conditions noted are these: organ bath, Krebs solution 28° C.; for Kb: Oryctolagus cuniculus, read-out: Contraction suppressing test, pA2 (converted). The protocol:
Action on the Contraction of a Specimen of Longitudinal Muscle in the Duodenum Extracted from a Rabbit
The action on the motilin-induced contraction of a specimen of longitudinal muscle in the duodenum extracted from a rabbit was investigated by the following method. A duodenum specimen (5×15 mm) extracted from a slaughtered rabbit was suspended in an organ bath (10 ml) such that the longitudinal muscle would run vertically; the bath was filled with a Krebs solution kept at 28° C. A mixed gas (95% O2 and 5% CO2) was continuously bubbled into the Krebs solution and the contraction of the duodenum specimen was recorded isotonically (with a 1-g load) via an isotonic transducer (ME-3407, ME Commercial, Tokyo, Japan). The degree of contraction was expressed in relative values, with the contraction by acetylcholine at a dose of 10^−4 M being taken as 100%. The activity of the compound was calculated as pA2 value indicating its effect on the dose-dependent muscle contraction by the motilin put into the organ bath.

Each structure is given as a SMILES string. Where a SMILES comes first, the peptide text is derived from it. [ ]: non-standard residue; d: D form. The star is where a group is joined. NMeTyr(3-tBu) = CN[C@@H](Cc1ccc(O)c(C(C)(C)C)c1)C(=O)O; Tyr(3-tBu) = CC(C)(C)c1cc(C[C@H](N)C(=O)O)ccc1O; NMePhe(4-F) = CN[C@@H](Cc1ccc(F)cc1)C(=O)O; Phe(4-F) = N[C@@H](Cc1ccc(F)cc1)C(=O)O; NMeV = CN[C@H](C(=O)O)C(C)C; NHtBu = CC(C)(C)N*; NHiPr = CC(C)N*; NHPr = CCCN*

T1 sequence (G1T803 1-400): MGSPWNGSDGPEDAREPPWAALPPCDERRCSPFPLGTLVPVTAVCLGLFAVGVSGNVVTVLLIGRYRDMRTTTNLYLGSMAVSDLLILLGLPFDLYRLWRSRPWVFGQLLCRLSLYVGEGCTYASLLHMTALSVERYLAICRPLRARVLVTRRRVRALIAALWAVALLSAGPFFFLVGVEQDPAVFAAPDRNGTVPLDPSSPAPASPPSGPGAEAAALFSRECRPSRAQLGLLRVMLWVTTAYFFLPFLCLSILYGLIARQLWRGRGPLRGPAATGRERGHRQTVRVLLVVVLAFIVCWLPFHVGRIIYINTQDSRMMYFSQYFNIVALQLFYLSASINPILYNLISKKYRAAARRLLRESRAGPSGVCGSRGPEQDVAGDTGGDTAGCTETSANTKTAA

In turn, `CCN[C@@H](Cc1ccc(F)cc1)C(=O)N(C)[C@H](C(=O)N[C@@H](Cc1ccc(O)c(C(C)(C)C)c1)C(=O)NC)C(C)C` [Example 33, N-Et-Phe(4-F)-N-Me-Val-Tyr(3-tBu)-NHMe] displayed an IC50 on motilin receptor of 1.7 nM. In addition, the Kb in assay [1] is 3.98 nM.

Molecule `CN[C@@H](Cc1ccc(F)cc1)C(=O)N(C)[C@H](C(=O)N(C)[C@@H](Cc1ccc(O)c(C(C)(C)C)c1)C(N)=O)C(C)C` [Example 34, N-Me-Phe(4-F)-N-Me-Val-N-Me-Tyr(3-tBu)-NH2] (H-[NMePhe(4-F)]-[NMeV]-[NMeTyr(3-tBu)]-NH2) yielded an IC50 on motilin receptor of 1.5 nM. For the same molecule, in assay [1], the Kb is 0.398 nM.

Take `CCN[C@@H](Cc1ccc(F)cc1)C(=O)N(C)[C@H](C(=O)N(C)[C@@H](Cc1ccc(O)c(C(C)(C)C)c1)C(N)=O)C(C)C` [Example 35, N-Et-Phe(4-F)-N-Me-Val-N-Me-Tyr(3-tBu)-NH2]: the IC50 at motilin receptor was 1.7 nM. The Kb in assay [1] was 1.58 nM.

Regarding `CNC(=O)[C@H](Cc1ccc(O)c(C(C)(C)C)c1)N(C)C(=O)[C@H](C(C)C)N(C)C(=O)[C@@H](N)Cc1ccc(F)cc1` [Example 36, Phe(4-F)-N-Me-Val-N-Me-Tyr(3-tBu)-NHMe] (H-[Phe(4-F)]-[NMeV]-[NMeTyr(3-tBu)]-NHMe), at motilin receptor, the IC50 amounted to 2.3 nM. In addition, the Kb in assay [1] was 1.58 nM.

`CNC(=O)[C@H](Cc1ccc(O)c(C(C)(C)C)c1)N(C)C(=O)[C@H](C(C)C)N(C)C(=O)[C@H](Cc1ccc(F)cc1)NC` [Example 37, N-Me-Phe(4-F)-N-Me-Val-N-Me-Tyr(3-tBu)-NHMe] (H-[NMePhe(4-F)]-[NMeV]-[NMeTyr(3-tBu)]-NHMe) had an IC50 at motilin receptor of 0.6 nM. Also, the Kb in assay [1] is 1.58 nM.

Regarding `CCN[C@@H](Cc1ccc(F)cc1)C(=O)N(C)[C@H](C(=O)N(C)[C@@H](Cc1ccc(O)c(C(C)(C)C)c1)C(=O)NC)C(C)C` [Example 38, N-Et-Phe(4-F)-N-Me-Val-N-Me-Tyr(3-tBu)-NHMe], on motilin receptor, the IC50 worked out at 3 nM. Also, in assay [1], the Kb is 6.31 nM.

Molecule `CCN(C(=O)[C@H](C(C)C)N(C)C(=O)[C@@H](N)Cc1ccc(F)cc1)[C@@H](Cc1ccc(O)c(C(C)(C)C)c1)C(N)=O` [Example 39, Phe(4-F)-N-Me-Val-N-Et-Tyr(3-tBu)-NH2] came in with an IC50 at motilin receptor of 2 nM. In assay [1], the Kb was 2 nM.

Molecule `CCN(C(=O)[C@H](C(C)C)N(C)C(=O)[C@H](Cc1ccc(F)cc1)NC)[C@@H](Cc1ccc(O)c(C(C)(C)C)c1)C(N)=O` [Example 40, N-Me-Phe(4-F)-N-Me-Val-N-Et-Tyr(3-tBu)-NH2] showed an IC50 on motilin receptor of 1.6 nM. Also, the Kb in assay [1] is 2.51 nM.

On motilin receptor, `CCN[C@@H](Cc1ccc(F)cc1)C(=O)N(C)[C@H](C(=O)N(CC)[C@@H](Cc1ccc(O)c(C(C)(C)C)c1)C(N)=O)C(C)C` [Example 41, N-Et-Phe(4-F)-N-Me-Val-N-Et-Tyr(3-tBu)-NH2] registered an IC50 of 3.1 nM. Further, the Kb in assay [1] is 3.98 nM.

As to `CCN(C(=O)[C@H](C(C)C)N(C)C(=O)[C@@H](N)Cc1ccc(F)cc1)[C@@H](Cc1ccc(O)c(C(C)(C)C)c1)C(=O)NC` [Example 42, Phe(4-F)-N-Me-Val-N-Et-Tyr(3-tBu)-NHMe], the IC50 at motilin receptor worked out at 1.2 nM. In addition, the Kb in assay [1] is 5.01 nM.

On to `CCN(C(=O)[C@H](C(C)C)N(C)C(=O)[C@H](Cc1ccc(F)cc1)NC)[C@@H](Cc1ccc(O)c(C(C)(C)C)c1)C(=O)NC` [Example 43, N-Me-Phe(4-F)-N-Me-Val-N-Et-Tyr(3-tBu)-NHMe], for which, at motilin receptor, the IC50 turned out to be 1.9 nM. In assay [1], the Kb was 3.16 nM.

`CCN[C@@H](Cc1ccc(F)cc1)C(=O)N(C)[C@H](C(=O)N(CC)[C@@H](Cc1ccc(O)c(C(C)(C)C)c1)C(=O)NC)C(C)C` [Example 44, N-Et-Phe(4-F)-N-Me-Val-N-Et-Tyr(3-tBu)-NHMe] registered an IC50 at motilin receptor of 3.6 nM. The Kb in assay [1] was 3.16 nM.

`CC(C)[C@@H](C(=O)N[C@@H](Cc1ccc(O)c(C(C)(C)C)c1)C(=O)NC(C)(C)C)N(C)C(=O)[C@@H](N)Cc1ccc(F)cc1` [Example 63, Phe(4-F)-N-Me-Val-Tyr(3-tBu)-NHtBu] (H-[Phe(4-F)]-[NMeV]-[Tyr(3-tBu)]-NHtBu) returned an IC50 on motilin receptor of 0.62 nM. Moreover, the Kb in assay [1] was 3.98 nM.

On to `CC(C)C(C(=O)N(C)C(Cc1ccc(O)c(C(C)(C)C)c1)C(=O)NCS(C)(=O)=O)N(C)C(=O)C(N)Cc1ccc(F)cc1` (centres unmarked) [Example 64, Phe(4-F)-N-Me-Val-N-Me-Tyr(3-tBu)-NHCH2SO2CH3], for which, at motilin receptor, the IC50 came out at 1 nM. Also, the “Contraction suppressing test, pA2” value in assay [1] stood at 9.0.

Regarding `CCNC(=O)[C@H](Cc1ccc(O)c(C(C)(C)C)c1)NC(=O)[C@H](C(C)C)N(C)C(=O)[C@@H](N)Cc1ccc(F)cc1` [Example 101, Phe(4-F)-N-Me-Val-Tyr(3-tBu)-NHEt] (H-[Phe(4-F)]-[NMeV]-[Tyr(3-tBu)]-NHEt), the IC50 on motilin receptor amounted to 0.24 nM. Moreover, the Kb in assay [1] is 1.26 nM.

`CCNC(=O)[C@H](Cc1ccc(O)c(C(C)(C)C)c1)NC(=O)[C@H](C(C)C)N(C)C(=O)[C@H](Cc1ccc(F)cc1)NC` [Example 102, N-Me-Phe(4-F)-N-Me-Val-Tyr(3-tBu)-NHEt] (H-[NMePhe(4-F)]-[NMeV]-[Tyr(3-tBu)]-NHEt): the IC50 on motilin receptor is 0.31 nM. In addition, in assay [1], the Kb is 1 nM.

`CCNC(=O)[C@H](Cc1ccc(O)c(C(C)(C)C)c1)NC(=O)[C@H](C(C)C)N(C)C(=O)[C@H](Cc1ccc(F)cc1)NCC` [Example 103, N-Et-Phe(4-F)-N-Me-Val-Tyr(3-tBu)-NHEt] showed an IC50 at motilin receptor of 0.86 nM. Moreover, the Kb in assay [1] is 1.26 nM.

In turn, `CCNC(=O)[C@H](Cc1ccc(O)c(C(C)(C)C)c1)N(C)C(=O)[C@H](C(C)C)N(C)C(=O)[C@@H](N)Cc1ccc(F)cc1` [Example 104, Phe(4-F)-N-Me-Val-N-Me-Tyr(3-tBu)-NHEt] (H-[Phe(4-F)]-[NMeV]-[NMeTyr(3-tBu)]-NHEt) registered an IC50 at motilin receptor of 0.32 nM. For the same molecule, in assay [1], the Kb is 0.794 nM.

In the case of `CCNC(=O)[C@H](Cc1ccc(O)c(C(C)(C)C)c1)N(C)C(=O)[C@H](C(C)C)N(C)C(=O)[C@H](Cc1ccc(F)cc1)NC` [Example 105, N-Me-Phe(4-F)-N-Me-Val-N-Me-Tyr(3-tBu)-NHEt] (H-[NMePhe(4-F)]-[NMeV]-[NMeTyr(3-tBu)]-NHEt), at motilin receptor, the IC50 is 0.31 nM. The Kb in assay [1] was 0.158 nM.

At motilin receptor, `CCNC(=O)[C@H](Cc1ccc(O)c(C(C)(C)C)c1)N(C)C(=O)[C@H](C(C)C)N(C)C(=O)[C@H](Cc1ccc(F)cc1)NCC` [Example 106, N-Et-Phe(4-F)-N-Me-Val-N-Me-Tyr(3-tBu)-NHEt] came in with an IC50 of 0.62 nM. The Kb in assay [1] was 0.158 nM.

`CCNC(=O)[C@H](Cc1ccc(O)c(C(C)(C)C)c1)N(CC)C(=O)[C@H](C(C)C)N(C)C(=O)[C@@H](N)Cc1ccc(F)cc1` [Example 107, Phe(4-F)-N-Me-Val-N-Et-Tyr(3-tBu)-NHEt] returned an IC50 on motilin receptor of 0.39 nM. Also, the Kb in assay [1] was 2 nM.

`CCNC(=O)[C@H](Cc1ccc(O)c(C(C)(C)C)c1)N(CC)C(=O)[C@H](C(C)C)N(C)C(=O)[C@H](Cc1ccc(F)cc1)NC` [Example 108, N-Me-Phe(4-F)-N-Me-Val-N-Et-Tyr(3-tBu)-NHEt] showed an IC50 on motilin receptor of 0.43 nM. Besides, the Kb in assay [1] is 1 nM.

`CCNC(=O)[C@H](Cc1ccc(O)c(C(C)(C)C)c1)N(CC)C(=O)[C@H](C(C)C)N(C)C(=O)[C@H](Cc1ccc(F)cc1)NCC` [Example 109, N-Et-Phe(4-F)-N-Me-Val-N-Et-Tyr(3-tBu)-NHEt]: the IC50 on motilin receptor is 0.17 nM. In addition, the Kb in assay [1] was 2 nM.

`CCCNC(=O)[C@H](Cc1ccc(O)c(C(C)(C)C)c1)NC(=O)[C@H](C(C)C)N(C)C(=O)[C@@H](N)Cc1ccc(F)cc1` [Example 119, Phe(4-F)-N-Me-Val-Tyr(3-tBu)-NH-n-Pr] (H-[Phe(4-F)]-[NMeV]-[Tyr(3-tBu)]-NHPr): on motilin receptor, the IC50 came to 0.4 nM. Besides, in assay [1], the Kb is 0.398 nM.

Regarding `CC(C)NC(=O)[C@H](Cc1ccc(O)c(C(C)(C)C)c1)NC(=O)[C@H](C(C)C)N(C)C(=O)[C@@H](N)Cc1ccc(F)cc1` [Example 120, Phe(4-F)-N-Me-Val-Tyr(3-tBu)-NH-i-Pr] (H-[Phe(4-F)]-[NMeV]-[Tyr(3-tBu)]-NHiPr), at motilin receptor, the IC50 amounted to 0.27 nM. Moreover, the Kb in assay [1] was 1 nM.

At motilin receptor, `CC(C)[C@@H](C(=O)N(C)[C@@H](Cc1ccc(O)c(C(C)(C)C)c1)C(=O)NC1CC1)N(C)C(=O)[C@@H](N)Cc1ccc(F)cc1` [Example 121, Phe(4-F)-N-Me-Val-N-Me-Tyr(3-tBu)-NH-c-Pr] came in with an IC50 of 0.41 nM. For the same molecule, the Kb in assay [1] was 1.26 nM.

`CC(C)[C@@H](C(=O)N[C@@H](Cc1ccc(O)c(C(C)(C)C)c1)C(=O)NCO)N(C)C(=O)[C@@H](N)Cc1ccc(F)cc1` [Example 122, Phe(4-F)-N-Me-Val-Tyr(3-tBu)-NHCH2OH]: the IC50 on motilin receptor was 0.47 nM. Moreover, in assay [1], the Kb was 1 nM.

`CN[C@@H](Cc1ccc(F)cc1)C(=O)N(C)[C@H](C(=O)N[C@@H](Cc1ccc(O)c(C(C)(C)C)c1)C(=O)NCO)C(C)C` [Example 123, N-Me-Phe(4-F)-N-Me-Val-Tyr(3-tBu)-NHCH2OH] registered an IC50 on motilin receptor of 0.7 nM. Also, the Kb in assay [1] is 0.794 nM.

One may read the IC50 as the concentration that gives 50% inhibition. Higher therefore signals lower potency.

These data come from patent US7553969B1, “Substituted phenethylamine derivatives” (Chugai Seiyaku Kabushiki Kaisha, priority 1999, dated 2009).
